US4065575A, “3-Aminomethyl derivatives of 4-chromanone” (Joullie International, priority 1975, dated 1977)
“Also recorded” adds a separate entry of the source. Where a name gives a salt, the structure may show the parent alone.

What was measured:
[1] = Acute toxicity in mice (LD 50); format: in vivo; conditions: mouse, in vivo, mice, 15 days observation
Description: (§1) The study is carried out on batches of 5 Swiss female mice of the NMRI Han. strain. The products are administered either intravenously (into the caudal vein) in solution in a 9 g..permill. sodium chloride solution, or orally (probang) in suspension in a 10% solution of gum arabic.
(§2) The animals are observed for the 15 days following the administration of the products.
(§3) The LD 50 values are calculated by the method of Karber and Behrens (Arch. Exp. Pathol. Pharm. 177, 1935, page 379).

mice = assay: Acute toxicity in mice (LD 50); format: in vivo; conditions: intravenous; in words
Description: as §1, §2, §3

[2] = Cardiovascular action in dogs; format: in vivo, male Beagle dogs
Description: Male Beagle dogs weighing 9 to 12 kg. were anaesthetised by intrasaphenous injection of a 2% solution of chloralose in physiological solution, at a dose of 100 mg./kg.
The anaesthesia is maintained by slow perfusion of 5% pentobarbital (1.2 ml./hour).
The animals are tracheotomised and placed under assisted respiration by means of a Bird respirator. Their oxygenation and their acid-base equilibrium are controlled by determination of the pH, the pCO2 and the pO2 on blood samples taken from a collateral of the brachial artery (pH/gas analyser for blood, IL model 213/227).
The different parameters are recorded on a polygraph.

[3] = tested on: hypertensive effects of electrical stimulation, adrenaline and noradrenaline; assay: α-Sympatholytic effects in amyeliated rats; format: in vivo; conditions: for % variation of the hypertensive effects obtained with adrenaline: adrenaline 1.25 to 2.5 μg./kg.; for % variation of the hypertensive effects obtained with noradrenaline: noradrenaline 1.25 to 2.5 μg./kg.
Source text: The α-sympatholytic effects of LJ 1052 and LJ 1053 are compared with those of isoxsuprine in amyeliated rats which have been prepared by a method derived from those of Shipley and Tilden (Proc. soc. Exp. Biol. Med. 1947, 64, 453-455) and of Gillespie and Muir (Br. J. Pharmac. Chemother. 1967, 30, 78-87).
The effects on the blood pressure of electrical stimulation of the thoracolumbar sympathic nerve (rectangular signals = voltage 20 to 40 volts; width 2 m. sec; frequency 10 secs.; duration 5 to 10 secs.) and of injections of adrenaline (1.25 to 2.5 μg./kg.) and of noradrenaline (1.25 to 2.5 μg./kg.) are determined before and after injection of the products tested.

platelet aggregation = assay: Anti-platelet-aggregation in vitro; format: cell-based; conditions: in words
[4] = tested on: isolated auricle of a rabbit; assay: Peripheral vasomotoricity, isolated and perfused auricle of a rabbit
Description: The flow rate of the liquid issuing from the veins is recorded by electronic contact on a polygraph. The products to be studied are injected at increasing doses into the perfusion tube and their actions are compared to that of isoxsuprine used as the reference substance.
The results, collected in Table No. III, are expressed in the maximum percentage increase of the flow rate at the various doses used.

ADP platelet aggregation = assay: ADP aggregation test; format: cell-based; conditions: in words
[5] = 0.04 mg./kg. i.v. (1/1,000 LD 50)
[6] = 0.04 mg./kg. i.v. (1/1,000 LD 50), first or only phase
[7] = dose 50 g./kg. (so in the source)
[8] = dose 100 g./kg. (so in the source)
[9] = dose 500 g./kg. (so in the source)
[10] = dose 2,500 g./kg. (so in the source)

SMILES: COCCNCC1COc2ccccc2C1=O (stereo not drawn) [LJ 1052, 3-(2-Methoxyethylaminomethyl)-4-chromanone hydrochloride]
- LD50 at 360 h ([1]; intravenous administration): 47 mg/kg
- LD50 at 360 h ([1]; oral administration): 475 mg/kg
- intravenous LD 50 in mice (comparison of three products) (mice): practically identical
- Diastolic AP, duration of action [2, 5]: 2 min
- Diastolic AP, maximum per cent variation [2, 5]: -29%
- FF, duration of action [2, 5]: 30 min
- Hb (heart beat), maximum per cent variation [2, 5]: +14%
- Hb, duration of action [2, 5]: 25 min
- LVP, duration of action [2, 5]: 25 min
- Mean AP, duration of action [2, 5]: 2 min
- Mean AP, maximum per cent variation [2, 5]: -25%
- Systolic AP, duration of action [2, 5]: 30 min
- Systolic AP, maximum per cent variation [2, 5]: +13%
- LVP (left ventricular pressure), maximum per cent variation [2, 6]: +9%
- dLVP/dt, maximum per cent variation [2, 6]: +34%
- dLVP/dt, duration of action ([2]; 0.04 mg./kg. i.v. (1/1,000 LD 50), only phase): 30 min
- cardiovascular action compared with isoxsuprine ([2]; in words): comparable to or even greater than that of isoxsuprine
- femoral flow rate ([2]; low doses, in words): activity comparable to that of isoxsuprine
- % variation of the hypertensive effects obtained with electrical stimulation [3, 7]: 0%
- % variation of the hypertensive effects obtained with adrenaline [3, 7]: -15%
- % variation of the hypertensive effects obtained with noradrenaline [3, 7]: -11%
- % variation of the hypertensive effects obtained with electrical stimulation [3, 8]: 0%
- % variation of the hypertensive effects obtained with adrenaline [3, 8]: -28%
- % variation of the hypertensive effects obtained with noradrenaline [3, 8]: -12%
- % variation of the hypertensive effects obtained with electrical stimulation [3, 9]: -20%
- % variation of the hypertensive effects obtained with adrenaline [3, 9]: -77%
- % variation of the hypertensive effects obtained with noradrenaline [3, 9]: -38%
- % variation of the hypertensive effects obtained with electrical stimulation [3, 10]: -80%
- % variation of the hypertensive effects obtained with adrenaline [3, 10]: -77%
- % variation of the hypertensive effects obtained with noradrenaline [3, 10]: -50%
- α-sympatholytic effect, comparison ([3]; same doses, in words): less α-sympatholytic than LJ 1053 and isoxsuprine
- anti-platelet-aggregation properties (platelet aggregation): marked anti-platelet-aggregation properties in vitro
- activation at 0.0001 mg ([4]; Oryctolagus cuniculus, dose 0.1 μg., read-out: Maximum variations in the flow rate): 79%
- activation at 0.001 mg ([4]; Oryctolagus cuniculus, dose 1 μg., read-out: Maximum variations in the flow rate): 77%
- activation at 0.01 mg ([4]; Oryctolagus cuniculus, dose 10 μg., read-out: Maximum variations in the flow rate): 100%
- activation at 0.1 mg ([4]; Oryctolagus cuniculus, dose 100 μg., read-out: Maximum variations in the flow rate): 150%
- duration of the effects / of the action ([4]; at the highest doses): ≥ 30 min
- peripheral vasodilatory action ([4]; in words, hydrochloride): great; also recorded: as active as isoxsuprine; also recorded: great even at very low doses
- anti-aggregation activity compared with adenosine (ADP platelet aggregation): almost as active as adenosine
